Key:
[1] = test system: inflammation markers IL-1, IL-6, and TNF-a; test: Inflammation markers in CSF of HSV-1 infected rats; type: in vivo, rat; settings: day 6, 1 or 10 pg intranasally twice daily, n=3
Description: To test that hypothesis, adult rats were infected by having a solution of the herpes simplex virus type 1 (HSV-1; strain 2762, batch 041028; 1.7×10^7 PFU/mL) instilled in their right nostril. Half of the animals received 10 min later 25 μL (1 or 10 pg) of AF-16 in their right nostril, and had thereafter the same dose of AF-16 instilled every morning at 8 AM and every night at 6 PM until the experiment was terminated on day 6. The other half of the HSV-1 infected rats received at the same time intervals 25 μL of the vehicle, phosphate buffered saline. On day 6, cerebrospinal fluid (CSF) samples were taken from the animals, either treated with AF-16 (n=3), or the vehicle (n=3), according to the procedure described by Huang, Saljo and Hansson (1996). […] It is concluded that treatment with AF-16 is not likely to improve the survival of rodents suffering from HSV-1 encephalitis by altering the inflammatory response, but by normalizing the intracranial pressure, thereby preventing prevalence of high ICP in a CC and thereby the development of a CS. The deleterious effects caused by the HSV-1 encephalitis were thus considered to be due to that AF hampered the development of a CS.

Staphylococcus areus = test: Yellow pigment retained in cultured Staphylococcus areus; type: cell-based; settings: cultured over night or 2 days with AF-16, vs vehicle
From the text: Effects of AF was investigated in addition in prokaryotic cells, which are enclosed by a complex cell wall, thereby enabling the development of elevated pressure due to hampered membrane functions. That was done in bacteria, which synthesize and release a wide variety of substances that may cause damage to mammalian cells and thus to a body. Examples on such products are pigments, enzymes and toxins, which are transferred through the outer bacterial membrane to the extracellular environment. Inhibition of such membrane activities would reduce or even block the transfer and/or release of such pathogenic substances. In order to investigate if the peptide AF-16 affected the transfer of bacterial products from its synthesis in the bacterium to its environment, the following experiment was performed. The bacterium Staphylococcus areus, which synthesize a yellow pigment, was cultured over night or, occasionally for 2 days, in the presence or absence of the peptide AF-16. After a day or two was the bacterial culture rinsed, and then concentrated by centrifugation. The yellow pigment formed by the Staphylococcus areus was extracted from the permeabilized, pelleted bacteria with methanol and the light absorption determined by spectrometry.

implanted tumours = test: Interstitial fluid pressure (IFP) in implanted tumours; type: in vivo, rodents
Description: Tumours, malignant as well as benign, have been implanted subcutaneously and intramuscularly in rodents. Every second animal, having tumours with a diameter ranging from 10 mm to 15 mm, was treated with AF proteins or AF-16, systemically with the aid of subcutaneously implanted Alzet osmotic minipumps, by injections of AF-16 at or into the tumour. In another experiment, the AF-16 peptide was delivered from an implanted Alzet 2001 pump directly onto and/or into the tumour with a fine silicone tube. Additional rats had the AF-protein induced by their feed ort by having AF in egg yolk. For comparison, an equal number of rats received the same treatment but with the vehicle. The interstitial fluid pressure (IFP) in the tumour as well as at its adjacent regions was determined with the aid of a Samba glass fibre pressure sensor (diameter 0.4 mm), with and without a protecting tubing, as well as with equipment enabling determination of the interstitial fluid pressure by the “wick” technique. […] The IFP in the adjacent connective tissue was ranging from 0 to 4 mm Hg, but could occasionally be negative. Tumours in the range of 10-15 mm, and treated with AF-16 as described above, got a reduction of the IFP, which turned reduced to usually 12 mm Hg or less.

VCHSKTRSNPENNVGL [AF-16]
IL-1 concentration in CSF vs vehicle [1]: no significant difference in the concentrations
IL-6 concentration in CSF vs vehicle [1]: no significant difference in the concentrations
TNF-a concentration in CSF vs vehicle [1]: no significant difference in the concentrations
yellow pigment extracted from bacteria (light absorption), corrected for number of bacteria (Staphylococcus areus): much more of the yellow pigment
inflammatory reaction in tumour (light microscopy) (implanted tumours; in vivo): reduced the intensity and extent of the inflammatory reaction
interstitial fluid pressure (IFP) in the tumour (implanted tumours; tumours 10-15 mm, vehicle in excess of 12): ≤ 12 mm Hg

— US8389468B2, “Approach to the treatment of compartment syndrome” (Lantmannen AS-Faktor AB, priority 2006, dated 2013)
